Reference: US6410790B1, “3-amin3-arylpropan-1-ol compounds, their preparation and use” (priority 1999, dated 2002)

Assays:
NA transporter = target: T1, NA transporter (Rattus norvegicus, UniProt Q63380); experiment: synaptosomal noradrenaline uptake inhibition (NA uptake inhibition); assay type: biochemical; settings: for NA Uptake Inhibition at 1 μM: 1 μM in the assay, synaptosomes from rat hypothalamus; for inhibition at 1 µM: read-out: NA Uptake Inhibition at 1 μM, 1 μM in the assay, synaptosomes from rat hypothalamus
T1 construct: synaptosomes are isolated fresh from rat brains; from tissue; host or cells: rat hypothalamus synaptosomes (P2 fraction)
T1 sequence (Q63380 1-617): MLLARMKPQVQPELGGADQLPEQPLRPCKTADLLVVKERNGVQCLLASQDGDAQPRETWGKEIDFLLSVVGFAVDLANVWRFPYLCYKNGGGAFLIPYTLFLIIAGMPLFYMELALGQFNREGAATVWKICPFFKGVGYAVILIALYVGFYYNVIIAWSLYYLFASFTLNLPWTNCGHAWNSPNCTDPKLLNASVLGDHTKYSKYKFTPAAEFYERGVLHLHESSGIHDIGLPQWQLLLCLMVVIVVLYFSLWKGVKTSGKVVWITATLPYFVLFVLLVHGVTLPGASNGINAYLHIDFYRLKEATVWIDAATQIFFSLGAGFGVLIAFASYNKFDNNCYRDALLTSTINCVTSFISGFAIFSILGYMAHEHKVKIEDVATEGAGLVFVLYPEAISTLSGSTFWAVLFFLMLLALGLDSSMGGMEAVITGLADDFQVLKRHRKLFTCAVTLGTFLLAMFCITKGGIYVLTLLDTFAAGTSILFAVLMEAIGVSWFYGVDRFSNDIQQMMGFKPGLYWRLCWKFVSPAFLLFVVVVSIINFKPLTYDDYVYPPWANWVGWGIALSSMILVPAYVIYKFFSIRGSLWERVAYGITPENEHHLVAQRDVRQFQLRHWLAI
Summary of the method: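 IC50 values converted to Ki via Cheng-Prusoff; Km by Lineweaver-Burk. N=4 independent series, each in triplicate, mean ± SEM.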

[1] = tested on: benzothiazepine binding site of the L-type calcium channel; experiment: Diltiazem binding, L calcium channel; set-up: species or system rat; settings: 10 μM, percentage inhibition, [3H]-cis-(+)-diltiazem 5 nM, rat cerebral cortex membranes
Summary of the method: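 Rat cerebral cortex membranes incubated with [^3H]-cis-(+)-diltiazem (5 nM) for 20 min at 25° C; nonspecific binding defined with (±)-diltiazem (10^−6 M). Bound ligand collected by GF/B filtration and counted; IC50 values converted to Ki by Cheng-Prusoff.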

[2] = tested on: phenylquinone-induced writhing reaction; experiment: phenylquinone-induced writhing test in mice; assay type: in vivo; settings: male NMRI mice, phenylquinone i.p. 10 minutes later; for inhibition in vivo at 10 mg/kg: Mus musculus, iv, 10 min, 10 mg/kg intravenously
Summary of the method: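 Male NMRI mice (25–30 g, n=10/group) received test substance i.v. at 10 mg/kg, then 0.02% phenylquinone i.p. 10 min later. Writhing reactions were counted 5–20 min after phenylquinone; % inhibition is relative to saline-treated controls.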

[3] = tested on: binding site 2 of the sodium channel; experiment: BTX binding, sodium channel; settings: 10 μM, percentage inhibition, [3H]-batrachotoxin A20 α-benzoate 10 nM, rat cerebral cortex synaptosomes
Summary of the method: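 Rat cerebral cortex synaptosomes incubated with 10 nM [^3H]-batrachotoxin A20 α-benzoate at 37° C for 120 min; non-specific binding defined with 0.3 mM veratridine. IC50 values converted to Ki via Cheng-Prusoff; means±SEM of 3 independent series run in triplicate.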

SMILES: CN(C)C(c1ccccc1)C1CCCCC1(O)Cc1ccccc1Cl.Cl (stereo not shown) [Example 30, 1-(2-chlorobenzyl)-2-(dimethylaminophenylmetlhyl)cyclohexanol, hydrochloride]
- NA Uptake Inhibition at 1 μM (NA transporter): 98%
- Diltiazem Binding at 10 μM [1]: 98%
- % Inhibition of the writhing reaction at 10 mg/kg intravenously [2]: 85%
- BTX Binding at 10 μM [3]: 96%

SMILES: CN(C)C(c1ccccc1Cl)C1CCCCC1(O)Cc1ccccc1.Cl (stereo not shown) [Example 45, 1-benzyl-2-[(2-chlorophenyl)dimethylaminomethyl]cyclohexanol, hydrochloride]
- inhibition at 1 µM (NA transporter): 89%
- Diltiazem Binding at 10 μM [1]: 67%
- inhibition in vivo at 10 mg/kg [2]: 82%
- BTX Binding at 10 μM [3]: 96%

SMILES: CN(C)C(c1ccccc1)C1CCCCC1(O)c1ccc(Br)cc1.Cl (stereo not shown) [Example 73]
- NA Uptake Inhibition at 1 μM (NA transporter): 61%
- Diltiazem Binding at 10 μM [1]: 89%
- % Inhibition of the writhing reaction at 10 mg/kg intravenously [2]: 75%
- BTX Binding at 10 μM [3]: 93%

SMILES: COc1cccc(CC2(O)CCCCC2C(c2cccc(OC)c2)N(C)C)c1.Cl (stereo not shown) [Example 37, 2-(dimethylamino-(3-methoxyphenyl)methyl]-1-(3-methoxybenzyl)cyclohexanol, hydrochloride]
- inhibition at 1 µM (NA transporter): 100%
- Diltiazem Binding at 10 μM [1]: 94%
- inhibition in vivo at 10 mg/kg [2]: 93%
- BTX Binding at 10 μM [3]: 90%

SMILES: COc1ccc(CC2(O)CCCCC2C(c2ccccc2)N(C)C)cc1.Cl (stereo not shown) [Example 49, 2-(dimethylaminophenylmethyl)-1-(4-methoxybenzyl)cyclohexanol, hydrochloride]
- inhibition at 1 µM (NA transporter): 100%
- Diltiazem Binding at 10 μM [1]: 93%
- inhibition in vivo at 10 mg/kg [2]: 100%
- BTX Binding at 10 μM [3]: 90%

SMILES: CN(C)C(c1ccccc1)C1CCCCC1(O)c1ccc(C(F)(F)F)cc1.Cl (stereo not shown) [Example 79]
- NA Uptake Inhibition at 1 μM (NA transporter): 58%
- Diltiazem Binding at 10 μM [1]: 67%
- % Inhibition of the writhing reaction at 10 mg/kg intravenously [2]: 71%
- BTX Binding at 10 μM [3]: 93%

SMILES: CN(C)C(c1ccccc1)C1CCCCC1(O)Cc1ccc(Cl)cc1.Cl (stereo not shown) [Example 23, 1-(4-chlorobenzyl)-2-(dimethylaminophenylmethyl)-1-cyclohexanol, hydrochloride]
- inhibition at 1 µM (NA transporter): 99%
- Diltiazem Binding at 10 μM [1]: 100%
- inhibition in vivo at 10 mg/kg [2]: 100%
- BTX Binding at 10 μM [3]: 94%

SMILES: CN(C)C(c1ccccc1)C1CCCCC1(O)c1cccc2ccccc12.Cl (stereo not shown) [Example 74, 2-(dimethylaminophenylmethyl)-1-naphthalene-1-ylcyclohexanol, hydrochloride]
- inhibition at 1 µM (NA transporter): 24%
- Diltiazem Binding at 10 μM [1]: 83%
- inhibition in vivo at 10 mg/kg [2]: 37%
- BTX Binding at 10 μM [3]: 93%

SMILES: CN(C)C(c1ccc2ccccc2c1)C1CCCCC1(O)Cc1ccccc1.Cl (stereo not shown) [Example 76, 1-benzyl-2-(dimethylaminonaphthalene-2-ylmethyl)cyclohexanol, hydrochloride]
- inhibition at 1 µM (NA transporter): 80%
- Diltiazem Binding at 10 μM [1]: 73%
- inhibition in vivo at 10 mg/kg [2]: 60%
- BTX Binding at 10 μM [3]: 90%

SMILES: CSc1ccccc1C1(O)CCCCC1C(c1ccccc1)N(C)C.Cl (stereo not shown) [Example 75, 2-(dimethylaminophenylmethyl)-1-(2-methylsulfanylphenyl)cyclohexanol, hydrochloride]
- inhibition at 1 µM (NA transporter): 0%
- Diltiazem Binding at 10 μM [1]: 89%
- inhibition in vivo at 10 mg/kg [2]: 57%
- BTX Binding at 10 μM [3]: 93%
